Assay results: ChEMBL document CHEMBL2074170, “Influence of different chemicals on MDR-1 P-glycoprotein expression and activity in the HK-2 proximal tubular cell line” (Toxicol Appl Pharmacol, 2002)

Assays:
[1] = biological target: T1, ATP-dependent translocase ABCB1 (Homo sapiens, UniProt P08183); test: TP_TRANSPORTER: Western blot, HK-2 cells; type: functional, cell-based
[2] = biological target: T1, ATP-dependent translocase ABCB1; test: TP_TRANSPORTER: RT-PCR in HK-2 cell; type: functional, cell-based

T1 sequence (P08183 whole entry): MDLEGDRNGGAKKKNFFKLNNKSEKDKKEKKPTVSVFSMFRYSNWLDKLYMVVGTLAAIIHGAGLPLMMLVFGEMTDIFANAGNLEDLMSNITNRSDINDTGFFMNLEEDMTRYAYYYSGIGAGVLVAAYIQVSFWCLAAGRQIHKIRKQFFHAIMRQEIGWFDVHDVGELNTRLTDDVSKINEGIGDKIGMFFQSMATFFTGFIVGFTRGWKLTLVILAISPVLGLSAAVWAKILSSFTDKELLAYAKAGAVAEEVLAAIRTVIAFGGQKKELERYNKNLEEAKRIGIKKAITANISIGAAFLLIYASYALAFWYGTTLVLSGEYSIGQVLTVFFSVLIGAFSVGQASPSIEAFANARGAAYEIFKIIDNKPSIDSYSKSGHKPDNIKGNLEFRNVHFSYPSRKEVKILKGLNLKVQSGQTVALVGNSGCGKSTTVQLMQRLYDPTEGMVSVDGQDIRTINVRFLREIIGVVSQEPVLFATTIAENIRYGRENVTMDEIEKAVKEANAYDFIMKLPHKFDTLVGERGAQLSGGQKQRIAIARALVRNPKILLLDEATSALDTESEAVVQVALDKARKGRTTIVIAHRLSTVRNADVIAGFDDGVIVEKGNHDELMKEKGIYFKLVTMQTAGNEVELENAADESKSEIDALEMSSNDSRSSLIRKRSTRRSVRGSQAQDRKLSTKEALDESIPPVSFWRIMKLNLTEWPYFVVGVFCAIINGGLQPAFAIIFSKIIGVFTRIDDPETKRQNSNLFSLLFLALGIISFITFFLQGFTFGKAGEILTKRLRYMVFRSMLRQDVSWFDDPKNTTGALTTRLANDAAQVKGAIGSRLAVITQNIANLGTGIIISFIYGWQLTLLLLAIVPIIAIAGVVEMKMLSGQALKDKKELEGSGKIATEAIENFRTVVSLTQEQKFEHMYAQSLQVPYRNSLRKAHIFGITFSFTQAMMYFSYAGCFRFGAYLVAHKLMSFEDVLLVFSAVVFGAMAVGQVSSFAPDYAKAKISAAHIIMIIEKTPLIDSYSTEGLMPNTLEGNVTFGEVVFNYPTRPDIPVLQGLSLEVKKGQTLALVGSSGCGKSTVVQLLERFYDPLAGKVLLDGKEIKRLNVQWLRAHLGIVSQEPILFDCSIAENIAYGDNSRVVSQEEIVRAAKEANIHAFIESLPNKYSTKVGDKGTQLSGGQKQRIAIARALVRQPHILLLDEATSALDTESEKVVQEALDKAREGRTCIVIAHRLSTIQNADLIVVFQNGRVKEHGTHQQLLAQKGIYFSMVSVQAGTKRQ

Row | SMILES | Activity [1] | Activity [2]
1 | CN/C(=N/CCSCc1nc[nH]c1C)NC#N [CIMETIDINE] | is not an inducer [-] | is not an inducer [-]
2 | CC(=O)Nc1ccc2c(c1)Cc1ccccc1-2 [2-ACETYLAMINOFLUORENE] | inducer [Decrease] | inducer [Decrease]
3 | C[C@@H]1C[C@H]2[C@@H]3CCC4=CC(=O)C=C[C@]4(C)[C@@]3(F)[C@@H](O)C[C@]2(C)[C@@]1(O)C(=O)CO [DEXAMETHASONE] | inducer [+] | inducer [+]
4 | CCCCCCCCCCCCCCCCOC[C@H](COP(=O)([O-])OCC[N+](C)(C)C)OC(C)=O [PLATELET ACTIVATING FACTOR] | inducer [+] | inducer [+]
5 | CC(=O)[C@H]1CC[C@H]2[C@@H]3CCC4=CC(=O)CC[C@]4(C)[C@H]3CC[C@]12C [PROGESTERONE] | is not an inducer [-] | is not an inducer [-]
6 | COc1ccc(CCN(C)CCCC(C#N)(c2ccc(OC)c(OC)c2)C(C)C)cc1OC (stereo unspecified) | is not an inducer [-] | is not an inducer [-]
7 | COc1cc(Cc2cnc(N)nc2N)cc(OC)c1OC [TRIMETHOPRIM] | is not an inducer [-] | is not an inducer [-]
8 | Cc1ccc2cc3c(ccc4ccccc43)c3c2c1CC3 [3-METHYLCHOLANTHRENE] | inducer [Decrease] | 
9 | C[C@]12CCC(=O)C=C1CC[C@@H]1[C@@H]2[C@@H](O)C[C@]2(C=O)[C@@H](C(=O)CO)CC[C@@H]12 [ALDOSTERONE] | inducer [+] | 
